Source: PubChem BioAssay AID248 (DTP/NCI, 2004)
Where “and” joins values, the source holds several entries; their conditions need not be identical. Identical values can stand only once. Inconclusive results and toxic doses are left out.

Tested on: L1210 leukemia ip in BDF1 mice, survival T/C
Experiment: NCI In Vivo Anticancer Drug Screen. Data for tumor model L1210 Leukemia (intraperitoneal) in B6D2F1 (BDF1) mice
Settings: endpoint: mean survival time, higher = longer survival
Method in brief: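 Value reflects the ratio of survival in compound-treated mice to survival in vehicle-treated controls, with both groups carrying the same transplanted tumor.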

[1] = dose: 25.0 mg/kg/injection, schedule: Q01DX009 (ip), vehicle: saline
[2] = dose: 50.0 mg/kg/injection, schedule: Q01DX009 (ip), vehicle: saline
[3] = dose: 100.0 mg/kg/injection, schedule: Q01DX009 (ip), vehicle: other
[4] = dose: 100.0 mg/kg/injection, schedule: Q01DX009 (ip), vehicle: saline with Tween-80
[5] = dose: 100.0 mg/kg/injection, schedule: Q04DX003 (ip), vehicle: saline with Tween-80
[6] = dose: 200.0 mg/kg/injection, schedule: Q01DX009 (ip), vehicle: saline with Tween-80
[7] = dose: 200.0 mg/kg/injection, schedule: Q04DX003 (ip), vehicle: saline with Tween-80
[8] = dose: 400.0 mg/kg/injection, schedule: Q01DX009 (ip), vehicle: saline with Tween-80
[9] = dose: 400.0 mg/kg/injection, schedule: Q04DX003 (ip), vehicle: saline with Tween-80
[10] = dose: 100.0 mg/kg/injection, schedule: Q01DX001 (ip), vehicle: saline
[11] = dose: 200.0 mg/kg/injection, schedule: Q01DX001 (ip), vehicle: saline

For CN(C)CNC=O, the T/C [1] was 86 % of control, the T/C [2] was 96 % of control and the T/C (dose: 100.0 mg/kg/injection, schedule: Q01DX009 (ip), vehicle: saline) was 96 % of control and 99 % of control. For the same compound, the T/C (dose: 100.0 mg/kg/injection, schedule: Q04DX003 (ip), vehicle: saline) was 103 % of control, the T/C (dose: 200.0 mg/kg/injection, schedule: Q04DX003 (ip), vehicle: saline) was 106 % of control and the T/C (dose: 400.0 mg/kg/injection, schedule: Q04DX003 (ip), vehicle: saline) was 97 % of control.

With CN=C(N)c1ccc(NC(=O)c2ccc(C(=O)Nc3ccc(C(N)=NC)cc3)c(N)c2)cc1 the T/C (dose: 0.37 mg/kg/injection, schedule: Q01DX Z (ip), vehicle: water) was 104 % of control, the T/C (dose: 0.75 mg/kg/injection, schedule: Q01DX Z (ip), vehicle: water) was 121 % of control and the T/C (dose: 1.5 mg/kg/injection, schedule: Q01DX Z (ip), vehicle: water) was 123 % of control. The T/C (dose: 1.75 mg/kg/injection, schedule: Q01DX Z (ip), vehicle: water) was 154 % of control, the T/C (dose: 2.0 mg/kg/injection, schedule: Q01DX Z (ip), vehicle: carboxymethylcellulose (CMC)) was 189 % of control and the T/C (dose: 4.0 mg/kg/injection, schedule: Q01DX Z (ip), vehicle: carboxymethylcellulose (CMC)) was 218 % of control. The T/C (dose: 6.0 mg/kg/injection, schedule: Q01DX Z (ip), vehicle: carboxymethylcellulose (CMC)) was 184 % of control, the T/C (dose: 6.7 mg/kg/injection, schedule: Q01DX001 (sc), vehicle: water) was 110 % of control and the T/C (dose: 8.0 mg/kg/injection, schedule: Q01DX Z (ip), vehicle: carboxymethylcellulose (CMC)) was 170 % of control. For the same compound, the T/C (dose: 10.0 mg/kg/injection, schedule: Q01DX001 (sc), vehicle: water) was 107 % of control, the T/C (dose: 10.0 mg/kg/injection, schedule: Q01DX Z (ip), vehicle: carboxymethylcellulose (CMC)) was 107 % of control and the T/C (dose: 12.0 mg/kg/injection, schedule: Q01DX Z (ip), vehicle: carboxymethylcellulose (CMC)) was 96 % of control. For the same compound, the T/C (dose: 14.0 mg/kg/injection, schedule: Q01DX Z (ip), vehicle: carboxymethylcellulose (CMC)) was 88 % of control, the T/C (dose: 15.0 mg/kg/injection, schedule: Q01DX001 (sc), vehicle: water) was 119 % of control and the T/C (dose: 25.0 mg/kg/injection, schedule: Q01DX Z (oral), vehicle: water) was 110 % of control. For the same compound, the T/C (dose: 50.0 mg/kg/injection, schedule: Q01DX Z (oral), vehicle: water) was 100 % of control, the T/C (dose: 100.0 mg/kg/injection, schedule: Q01DX Z (oral), vehicle: water) was 97 % of control and the T/C (dose: 200.0 mg/kg/injection, schedule: Q01DX Z (oral), vehicle: water) was 110 % of control.

With ClC1(Cl)C2C=CC=CCC21 (stereo unspecified) the T/C [3] was 103 % of control, the T/C (dose: 100.0 mg/kg/injection, schedule: Q04DX003 (ip), vehicle: other) was 103 % of control and the T/C (dose: 200.0 mg/kg/injection, schedule: Q01DX009 (ip), vehicle: other) was 97 % of control. The T/C (dose: 200.0 mg/kg/injection, schedule: Q04DX003 (ip), vehicle: other) was 92 % of control and the T/C (dose: 400.0 mg/kg/injection, schedule: Q01DX009 (ip), vehicle: other) was 92 % of control.

O=C(CCCCl)N1CCCC1 was tested, and the T/C (dose: 100.0 mg/kg/injection, schedule: Q04DX002 (ip), vehicle: saline) was 98 % of control, the T/C (dose: 200.0 mg/kg/injection, schedule: Q04DX002 (ip), vehicle: saline) was 91 % of control and the T/C (dose: 400.0 mg/kg/injection, schedule: Q04DX002 (ip), vehicle: saline) was 94 % of control.

For CCc1cc(C)cc(OC(=O)Nc2ccccc2)c1, the T/C [4] was 87 % of control, the T/C [5] was 93 % of control and the T/C [6] was 88 % of control. The T/C [7] was 93 % of control and the T/C [8] was 92 % of control.

For O=[N+]([O-])c1cccc(/C=C/C=C/c2ccc(S(=O)(=O)F)cc2Cl)c1, the T/C [4] was 100 % of control, the T/C [5] was 94 % of control and the T/C [6] was 93 % of control. The T/C [7] was 95 % of control, the T/C [8] was 91 % of control and the T/C [9] was 90 % of control.

With CCCCCCCCCCCCCCCC(=O)O[C@@]12C[C@@H](C)[C@@]3(O)[C@@H](C=C(CO)C[C@]4(O)C(=O)C(C)=C[C@@H]34)[C@@H]1C2(C)C the T/C (dose: 0.06 mg/kg/injection, schedule: Q01DX009 (ip), vehicle: saline) was 97 % of control, the T/C (dose: 0.13 mg/kg/injection, schedule: Q01DX009 (ip), vehicle: saline) was 107 % of control and the T/C (dose: 0.25 mg/kg/injection, schedule: Q01DX009 (ip), vehicle: saline) was 95 % of control. For the same compound, the T/C (dose: 0.5 mg/kg/injection, schedule: Q01DX009 (ip), vehicle: saline) was 101 % of control.

In the case of CC(=O)Oc1c2c(c(OC(C)=O)c3c1C(=O)c1ccccc1C3=O)CCCC2, the T/C [10] is reported as 98 % of control, the T/C [11] is reported as 92 % of control and the T/C (dose: 400.0 mg/kg/injection, schedule: Q01DX001 (ip), vehicle: saline) is reported as 98 % of control.

For O=C(CC(O)(C(F)(F)F)C(F)(F)F)c1ccc(C(=O)CC(O)(C(F)(F)F)C(F)(F)F)cc1, the T/C (dose: 50.0 mg/kg/injection, schedule: Q01DX009 (ip), vehicle: other) was 108 % of control and the T/C [3] was 97 % of control.

C/C(=C\Br)CBr was tested, and the T/C (dose: 100.0 mg/kg/injection, schedule: Q01DX009 (ip), vehicle: acetone) was 97 % of control.

In the case of O=[N+]([O-])c1ccc(O)cc1, the T/C (dose: 12.5 mg/kg/injection, schedule: Q04DX003 (ip), vehicle: saline + alcohol) is reported as 103 % of control, the T/C (dose: 25.0 mg/kg/injection, schedule: Q04DX003 (ip), vehicle: saline + alcohol) is reported as 100 % of control and the T/C (dose: 50.0 mg/kg/injection, schedule: Q04DX003 (ip), vehicle: saline + alcohol) is reported as 108 % of control. For the same compound, the T/C [10] was 113 % of control, the T/C (dose: 100.0 mg/kg/injection, schedule: Q04DX002 (ip), vehicle: saline with Tween-80) was 102 % of control and the T/C [11] was 101 % of control. For the same compound, the T/C (dose: 200.0 mg/kg/injection, schedule: Q04DX002 (ip), vehicle: saline with Tween-80) was 91 % of control.

In the case of O=NN(CCCl)C(=O)Nc1cccc(O)c1, the T/C (dose: 4.5 mg/kg/injection, schedule: Q01DX009 (ip), vehicle: other) is reported as 123 % of control, the T/C (dose: 7.0 mg/kg/injection, schedule: Q01DX009 (ip), vehicle: other) is reported as 176 % of control and the T/C (dose: 11.0 mg/kg/injection, schedule: Q01DX009 (ip), vehicle: other) is reported as 155 % of control. For the same compound, the T/C (dose: 17.0 mg/kg/injection, schedule: Q01DX009 (ip), vehicle: carboxymethylcellulose (CMC)) was 170 % of control, the T/C (dose: 17.0 mg/kg/injection, schedule: Q01DX009 (ip), vehicle: other) was 154 % of control and the T/C (dose: 26.0 mg/kg/injection, schedule: Q01DX009 (ip), vehicle: carboxymethylcellulose (CMC)) was 210 % of control. The T/C (dose: 26.0 mg/kg/injection, schedule: Q01DX009 (ip), vehicle: other) was 184 % of control, the T/C (dose: 30.0 mg/kg/injection, schedule: Q01DX001 (ip), vehicle: carboxymethylcellulose (CMC)) was 154 % of control and the T/C (dose: 40.0 mg/kg/injection, schedule: Q01DX009 (ip), vehicle: carboxymethylcellulose (CMC)) was 156 % of control. The T/C (dose: 40.0 mg/kg/injection, schedule: Q01DX009 (ip), vehicle: other) was 170 % of control, the T/C (dose: 60.0 mg/kg/injection, schedule: Q01DX001 (ip), vehicle: carboxymethylcellulose (CMC)) was 154 % of control and 168 % of control and the T/C (dose: 60.0 mg/kg/injection, schedule: Q01DX009 (ip), vehicle: other) was 121 % of control. The T/C (dose: 75.0 mg/kg/injection, schedule: Q01DX001 (ip), vehicle: carboxymethylcellulose (CMC)) was 118 % of control.

In the case of Oc1ccc(N=Cc2ccc(C=Nc3ccc(O)cc3)cc2)cc1, the T/C [4] is reported as 106 % of control, the T/C [5] is reported as 112 % of control and the T/C [6] is reported as 100 % of control. For the same compound, the T/C [7] was 100 % of control, the T/C [8] was 105 % of control and the T/C [9] was 100 % of control.

With CCN(CC)CCCOC(=O)/C=C/c1c(C)[nH]c(=O)[nH]c1=O the T/C (dose: 6.25 mg/kg/injection, schedule: Q01DX009 (ip), vehicle: saline) was 106 % of control, the T/C (dose: 12.5 mg/kg/injection, schedule: Q01DX009 (ip), vehicle: saline) was 97 % of control and the T/C (dose: 12.5 mg/kg/injection, schedule: Q04DX003 (ip), vehicle: saline) was 102 % of control. The T/C [1] was 96 % of control, the T/C (dose: 25.0 mg/kg/injection, schedule: Q04DX003 (ip), vehicle: saline) was 103 % of control and the T/C [2] was 103 % of control. The T/C (dose: 50.0 mg/kg/injection, schedule: Q04DX003 (ip), vehicle: saline) was 116 % of control.
